The text below walks through data of PMC6300358, “Preacinetobactin not acinetobactin is essential for iron uptake by the BauA transporter of the pathogen Acinetobacter baumannii” (eLife, 2018).

As a reminder, the Kd is the free concentration of one partner at which half of the binding sites on the other are occupied at equilibrium, for simple one-to-one binding.

This assay addresses T1, BauA (Acinetobacter baumannii, UniProt Q76HJ9).
T1 construct: mature protein (signal peptide removed); residues 33 to 703 well defined in the apo structure
Kind of assay: ITC (Kd […] at Fe3+:siderophore […]; […] at […]) and […] Å crystal structure. The format is binding.

T1 sequence (Q76HJ9 entry or part of it): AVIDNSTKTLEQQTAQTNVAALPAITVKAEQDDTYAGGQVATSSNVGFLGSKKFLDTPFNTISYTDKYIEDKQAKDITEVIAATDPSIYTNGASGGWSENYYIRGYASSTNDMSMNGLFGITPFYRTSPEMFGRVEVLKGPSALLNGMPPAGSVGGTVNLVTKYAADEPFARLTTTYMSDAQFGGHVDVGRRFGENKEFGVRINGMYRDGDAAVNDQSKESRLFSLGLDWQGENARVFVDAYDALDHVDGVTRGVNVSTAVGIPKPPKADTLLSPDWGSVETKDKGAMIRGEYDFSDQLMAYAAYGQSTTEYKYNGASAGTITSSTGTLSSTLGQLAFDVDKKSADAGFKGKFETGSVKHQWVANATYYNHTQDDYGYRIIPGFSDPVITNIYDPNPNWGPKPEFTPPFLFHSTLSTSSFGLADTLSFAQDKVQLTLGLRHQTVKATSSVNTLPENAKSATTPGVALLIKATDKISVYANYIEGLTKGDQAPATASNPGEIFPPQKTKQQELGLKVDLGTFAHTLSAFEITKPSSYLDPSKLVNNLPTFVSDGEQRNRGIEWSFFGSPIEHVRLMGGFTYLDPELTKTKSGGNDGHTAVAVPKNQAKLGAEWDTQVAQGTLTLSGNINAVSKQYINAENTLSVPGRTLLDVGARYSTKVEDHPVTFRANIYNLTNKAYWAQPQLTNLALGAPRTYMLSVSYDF

Compound `C[C@H]1OC(c2cccc(O)c2O)=N[C@@H]1C(=O)N(O)CCc1cnc[nH]1` [preacinetobactin] registered a Kd of 0.083 µM.
